Like-named read-outs stand apart in the source and are kept apart here.
Tested on: Anthonomus grandis (Cotton Boll Weevil)
Assay: Anthonomus grandis (Cotton Boll Weevil) test on sprayed cotton plants, mortality assessed
Format: in vivo
Details: 120 h, read-out: control (mortality assessed)
Method: Anthonomus grandis (Cotton Boll Weevil)
Cotton plants are treated (100 mL spray volume) and 10 adult weevils are added to each plant (2 replicates per concentration). 5 days after infestation the mortality is assessed. The following compounds were tested and gave at least 80% control at 50 ppm: B3, B4, C2, C3, C4, E1, E7
Compounds are tested according to the above method.

[1] = 50 ppm, cotton plants treated (100 mL spray volume), 10 adult weevils per plant, 5 days after infestation

`C[C@H](NC(=O)C1CC1)c1ccc(C2(C(F)(F)F)CN=C(c3cc(Cl)c(Cl)c(Cl)c3)C2)cc1` (stereo partly drawn) [Compound B3, N-[(1S)-1-[4-[5-(3,4,5-trichlorophenyl)-3-(trifluoromethyl)-2,4-dihydropyrrol-3-yl]phenyl]ethyl]cyclopropanecarboxamide] was tested, and the mortality at 50 ppm [1] was at least 80%.
`C[C@H](NC(=O)C1CC1)c1ccc(N2CCC(c3cc(C(F)(F)F)cc(C(F)(F)F)c3)(C(F)(F)F)C2)cc1` (stereo partly drawn) [Compound B4, N-[(1S)-1-[4-[3-[3,5-bis(trifluoromethyl)phenyl]-3-(trifluoromethyl)pyrrolidin-1-yl]phenyl]ethyl]cyclopropanecarboxamide] showed a mortality at 50 ppm [1] of at least 80%.
In the case of `N#Cc1cc(C2=NCC(c3cc(Cl)c(Cl)c(Cl)c3)(C(F)(F)F)C2)ccc1-n1cncn1` (centres unmarked) [Compound C2, 2-(1,2,4-triazol-1-yl)-5-[3-(3,4,5-trichlorophenyl)-3-(trifluoromethyl)-2,4-dihydropyrrol-5-yl]benzonitrile], the mortality at 50 ppm [1] is reported as at least 80%.
`N#Cc1cc(C2=NOC(c3cc(Cl)c(F)c(Cl)c3)(C(F)(F)F)C2)ccc1-n1cncn1` (centres unmarked) [Compound C3] gave a mortality at 50 ppm of at least 80%.
For `CCC(=O)NC1CCc2cc(C3=NOC(c4cc(Cl)cc(Cl)c4)(C(F)(F)F)C3)ccc21` (centres unmarked) [Compound E1], the mortality at 50 ppm was at least 80%.

— US20150189884A1, “METHODS OF CONTROLLING INSECTS” (Syngenta Participations AG, priority 2012, published 2015)
